Test system: subcutaneous liver tumor of genetic constellation p53−/−+Akt-over expression
Test: Subcutaneous liver cancer model, evaluation of tumor therapy (FIG. 7)
Format: in vivo, mouse
Text: FIG. 7: An example of subcutaneous liver cancer model of this invention on the genetic constellation p53−/−+Akt-over expression and its uses in evaluating tumor therapy. Akt is an […] that is activated in many cancers and may promote drug resistance in vitro (Mayo et al., “PTEN protects p53 from Mdm2 and sensitizes cancer cells to chemotherapy,” J. Biol. Chem. 277: 5484-5489 (2002)).
Most preferably, the therapies are used and evaluated in combination. […] The tumor embodied in FIG. 2 can also be treated with Rapamycin, a targeted therapy that inhibits the mammalian target of rapamycin (mTOR). […] In combination, however, as depicted in FIG. 7, the two therapies control tumor growth.

## Nc1ccn([C@@H]2O[C@H](CO)[C@@H](O)C2(F)F)c(=O)n1 [Gemcitabine]
  tumor growth: virtually no effect on tumor growth

Source: patent US8137907B2, “Orthotopic and genetically tractable non-human animal model for liver cancer and the uses thereof” (Cold Spring Harbor Laboratory, priority 2005, dated 2012)
